Measured values published in patent publication US20200305481A1, “STEVIOL GLYCOSIDE COMPOSITIONS FOR ORAL INGESTION OR USE” (CARGILL, INCORPORATED, priority 2015, published 2020).
Entries after “also recorded” stand apart in the source; their conditions may differ.

Experiments:
[1] = Sensory testing of steviol glycoside samples dissolved in water; format: in vivo; conditions: for Sensory Comments: about 300 ppm sample in reverse osmosis water, 2-3 mL tasted by two to three experienced tasters; for sweetness in water compared with Reb M in water: in reverse osmosis water, experienced tasters
Description: Steviol glycoside samples (SG201, SG203, and SG204) were isolated and purified from fermentation broth, purified Reb A and B are of leaf origin, and Reb M is chemically synthesized. All samples were dissolved in reverse osmosis water at the concentrations indicated. Approximately 2-3 milliliters of each solution was tasted and sensory evaluations conducted by two to three experienced tasters.

[2] = cited from earlier work; for taste properties in words: background statements, literature sensory evaluation
[3] = water at room temperature / beverage formulations; cited from earlier work

C=C1C[C@@]23CCC4[C@](C)(C(=O)OC5OC(CO)C(O)C(O)C5OC5OC(CO)C(O)C(O)C5NC(C)=O)CCC[C@@]4(C)[C@@H]2CCC1(OC1OC(CO)C(O)C(OC2OC(CO)C(O)C(O)C2O)C1OC1OC(CO)C(O)C(O)C1O)C3 (stereo partly drawn) [SG204]
Sensory Comments [1]: bitter, not very sweet
sweetness in water compared with Reb M in water [1]: do not exhibit sweetness similar to Reb M

C=C1C[C@@]23CCC4[C@](C)(C(=O)OC5OC(CO)C(O)C(O)C5OC5OC(CO)C(O)C(O)C5O)CCC[C@@]4(C)[C@@H]2CCC1(OC1OC(COC2OC(CO)C(O)C(O)C2O)C(O)C(O)C1OC1OC(CO)C(O)C(O)C1O)C3 (stereo partly drawn) [SG203]
Sensory Comments [1]: not sweet, meaty, brothy,; also recorded: strecker, methional
sweetness in water compared with Reb M in water [1]: do not exhibit sweetness similar to Reb M

C=C1C[C@@]23CCC4[C@](C)(C(=O)OC5OC(CO)C(O)C(OC6OC(CO)C(O)C(O)C6O)C5OC5OC(CO)C(O)C(O)C5O)CCC[C@@]4(C)[C@@H]2CCC1(OC1OC(CO)C(O)C(O)C1O)C3 (stereo partly drawn) [SG201]
Sensory Comments [1]: not sweet, meaty, brothy,; also recorded: strecker, methional
sweetness in water compared with Reb M in water [1]: do not exhibit sweetness similar to Reb M

C=C1C[C@@]23CC[C@H]4[C@@](C)(CCC[C@@]4(C)C(=O)O[C@@H]4O[C@H](CO)[C@@H](O)[C@H](O)[C@H]4O)[C@@H]2CC[C@]1(O[C@@H]1O[C@H](CO)[C@@H](O)[C@H](O[C@@H]2O[C@H](CO)[C@@H](O)[C@H](O)[C@H]2O)[C@H]1O[C@@H]1O[C@H](CO)[C@@H](O)[C@H](O)[C@H]1O)C3 [Reb A, rebaudioside A]
Sensory Comments [1]: some sweet, bitter
taste properties in words [2]: off-taste issues

C=C1C[C@@]23CC[C@H]4[C@@](C)(CCC[C@@]4(C)C(=O)O[C@@H]4O[C@H](CO)[C@@H](O)[C@H](O)[C@H]4O[C@@H]4O[C@H](CO)[C@@H](O)[C@H](O)[C@H]4O)[C@@H]2CC[C@]1(O[C@@H]1O[C@H](CO)[C@@H](O)[C@H](O[C@@H]2O[C@H](CO)[C@@H](O)[C@H](O)[C@H]2O)[C@H]1O[C@@H]1O[C@H](CO)[C@@H](O)[C@H](O)[C@H]1O)C3 [Reb D, rebaudioside D]
Sensory Comments [1]: less bitter; also recorded: better sweetness,
aqueous solubility in words [3]: low solubility in water at room temperature
taste properties in words [2]: slow onset of sweetness and was very clean
times sweeter than sucrose ([2]; relative to sucrose (sugar)): 200-220 times

C=C1C[C@@]23CC[C@H]4[C@@](C)(CCC[C@@]4(C)C(=O)O[C@@H]4O[C@H](CO)[C@@H](O)[C@H](O[C@@H]5O[C@H](CO)[C@@H](O)[C@H](O)[C@H]5O)[C@H]4O[C@@H]4O[C@H](CO)[C@@H](O)[C@H](O)[C@H]4O)[C@@H]2CC[C@]1(O[C@@H]1O[C@H](CO)[C@@H](O)[C@H](O[C@@H]2O[C@H](CO)[C@@H](O)[C@H](O)[C@H]2O)[C@H]1O[C@@H]1O[C@H](CO)[C@@H](O)[C@H](O)[C@H]1O)C3 [Reb M, rebaudioside M]
Sensory Comments [1]: good sweetness, almost; also recorded: sucrose-like sensation; also recorded: in mouth
aqueous solubility in words [3]: poor aqueous solubility and dissolution qualities
taste properties in words [2]: higher sweetness intensity and is more potent than other steviol glycosides
